Test results taken from ChEMBL document CHEMBL1131350, “Design of novel tripeptides with macrophage migration-enhancing activity” (1998).
Peptide text beside a SMILES is read from it. * marks the point of attachment. Fmoc = O=C(OCC1c2ccccc2-c2ccccc21)*; Cbz = O=C(OCc1ccccc1)*; Boc = CC(C)(C)OC(=O)*

Species on record: Oryctolagus cuniculus
Assay: Macrophage migration-enhancing activity was evaluated using rabbit alveolar macrophages expressed as Migration Index (MI)
Type: functional

Compound | MI
Clc1ccc(C2=N[C@H](c3ccccc3)[C@H](c3ccccc3)N2)cc1 | 140

Tested on: not listed separately
Assay: Macrophage migration-enhancing activity evaluated using rabbit alveolar macrophages at 1E-7M
Type: functional, Oryctolagus cuniculus

Compound | MI
NC(=O)[C@H](Cc1c[nH]cn1)NC(=O)[C@H](Cc1c[nH]c2ccccc12)NC(=O)[C@H](Cc1ccccc1)NC(=O)OCc1ccccc1 (Cbz-Phe-Trp-His-NH2) | 7
NC(=O)[C@H](Cc1c[nH]cn1)NC(=O)[C@H](Cc1ccccc1)NC(=O)[C@@H](N)Cc1ccccc1 (H-Phe-Phe-His-NH2) | 7
NC(=O)[C@H](Cc1ccccc1)NC(=O)[C@H](Cc1c[nH]cn1)NC(=O)[C@H](Cc1ccccc1)NC(=O)OCc1ccccc1 (Cbz-Phe-His-Phe-NH2) | -1
NC(=O)[C@H](Cc1c[nH]cn1)NC(=O)[C@H](Cc1ccc(O)cc1)NC(=O)[C@H](Cc1ccc(O)cc1)NC(=O)OCc1ccccc1 (Cbz-Tyr-Tyr-His-NH2) | -25
CC(C)C[C@H](NC(=O)[C@H](Cc1ccccc1)NC(=O)OCc1ccccc1)C(=O)N[C@@H](Cc1c[nH]cn1)C(N)=O (Cbz-Phe-Leu-His-NH2) | 4
NC(=O)[C@H](Cc1c[nH]cn1)NC(=O)[C@H](Cc1ccccc1)NC(=O)[C@H](Cc1ccccc1)NC(=O)[C@H](Cc1ccccc1)NC(=O)OCc1ccccc1 (Cbz-FFFH-NH2) | 15
NC(=O)[C@H](Cc1c[nH]cn1)NC(=O)[C@H](Cc1ccccc1)NC(=O)[C@H](Cc1c[nH]c2ccccc12)NC(=O)OCc1ccccc1 (Cbz-Trp-Phe-His-NH2) | 14
CC(C)(C)OC(=O)N[C@@H](Cc1ccccc1)C(=O)N[C@@H](Cc1ccccc1)C(=O)N[C@@H](Cc1c[nH]cn1)C(N)=O (Boc-Phe-Phe-His-NH2) | 96
NC(=O)[C@H](Cc1c[nH]cn1)NC(=O)[C@H](Cc1ccccc1)NC(=O)[C@H](Cc1ccccc1)NC(=O)OCC1c2ccccc2-c2ccccc21 (Fmoc-Phe-Phe-His-NH2) | 122
NCCCC[C@H](NC(=O)[C@H](Cc1ccccc1)NC(=O)[C@H](Cc1ccccc1)NC(=O)OCc1ccccc1)C(N)=O (Cbz-Phe-Phe-Lys-NH2) | 3
NC(=O)[C@H](Cc1c[nH]cn1)NC(=O)[C@H](Cc1ccccc1)NC(=O)[C@H](Cc1ccccc1)NC(=O)OCc1ccccc1 | 94
NC(=O)[C@@H](Cc1c[nH]cn1)NC(=O)[C@H](Cc1ccccc1)NC(=O)[C@H](Cc1ccccc1)NC(=O)OCc1ccccc1 | -1
NC(=O)C(Cc1c[nH]cn1)NC(=O)[C@@H](Cc1ccccc1)NC(=O)OCc1ccccc1 (some centres undefined) | 18
NC(=O)[C@H](Cc1c[nH]cn1)NC(=O)[C@H](Cc1ccccc1)NC(=O)[C@H](Cc1ccccc1)N1C(=O)c2ccccc2C1=O | -1
NC(=O)[C@H](Cc1c[nH]cn1)NC(=O)[C@H](Cc1ccccc1)NC(=O)[C@@H](Cc1ccccc1)NC(=O)OCc1ccccc1 | 2
O=C(N[C@@H](Cc1ccccc1)C(=O)N[C@@H](Cc1ccccc1)C(=O)N[C@@H](Cc1c[nH]cn1)C(=O)O)OCc1ccccc1 (Cbz-Phe-Phe-His-OH) | -6
CC(=O)N[C@@H](Cc1ccccc1)C(=O)N[C@@H](Cc1ccccc1)C(=O)N[C@@H](Cc1c[nH]cn1)C(N)=O (Ac-Phe-Phe-His-NH2) | 61
NC(=O)[C@H](Cc1ccccc1)NC(=O)[C@H](Cc1ccccc1)NC(=O)[C@H](Cc1c[nH]cn1)NC(=O)OCc1ccccc1 (Cbz-His-Phe-Phe-NH2) | 1
NC(=O)[C@H](Cc1c[nH]cn1)NC(=O)[C@H](Cc1c[nH]c2ccccc12)NC(=O)[C@H](Cc1c[nH]c2ccccc12)NC(=O)OCc1ccccc1 (Cbz-Trp-Trp-His-NH2) | 4
NC(=O)[C@H](Cc1c[nH]cn1)NC(=O)[C@H](Cc1ccc(O)cc1)NC(=O)[C@H](Cc1ccccc1)NC(=O)OCc1ccccc1 (Cbz-Phe-Tyr-His-NH2) | -23
CCOC(=O)[C@H](Cc1c[nH]cn1)NC(=O)[C@H](Cc1ccccc1)NC(=O)[C@H](Cc1ccccc1)NC(=O)OCc1ccccc1 (Cbz-Phe-Phe-His-OEt) | 95
C[C@H](NC(=O)OCc1ccccc1)C(=O)N[C@@H](Cc1ccccc1)C(=O)N[C@@H](Cc1c[nH]cn1)C(N)=O (Cbz-Ala-Phe-His-NH2) | 2
NC(=O)[C@H](Cc1c[nH]cn1)NC(=O)[C@H](Cc1ccccc1)NC(=O)[C@H](Cc1ccc(O)cc1)NC(=O)OCc1ccccc1 (Cbz-Tyr-Phe-His-NH2) | -28
N=C(N)NCCC[C@H](NC(=O)[C@H](Cc1ccccc1)NC(=O)[C@H](Cc1ccccc1)NC(=O)OCc1ccccc1)C(N)=O (Cbz-Phe-Phe-Arg-NH2) | 8
CC(C)C[C@H](NC(=O)OCc1ccccc1)C(=O)N[C@@H](Cc1ccccc1)C(=O)N[C@@H](Cc1c[nH]cn1)C(N)=O (Cbz-Leu-Phe-His-NH2) | 4
NC(=O)[C@H](Cc1c[nH]cn1)NC(=O)[C@@H](Cc1ccccc1)NC(=O)[C@H](Cc1ccccc1)NC(=O)OCc1ccccc1 | 0
CC(C)[C@H](NC(=O)OCc1ccccc1)C(=O)N[C@@H](Cc1ccccc1)C(=O)N[C@@H](Cc1c[nH]cn1)C(N)=O (Cbz-Val-Phe-His-NH2) | 3
COC(=O)[C@H](Cc1c[nH]cn1)NC(=O)[C@H](Cc1ccccc1)NC(=O)[C@H](Cc1ccccc1)NC(=O)OCc1ccccc1 (Cbz-Phe-Phe-His-OMe) | 97
